How the values were obtained:
CT26 tumors = assay: CT-26 murine carcinoma syngeneic mouse model; type: in vivo, BALB/C mice; conditions: mono-therapy at 1 mg/kg orally once a day, after 18 days of treatment
Description: Female BALB/C mice (Charles River) were used. The animals received food and water ad libitum and were housed in compliance normal standard of care for Laboratory Animals. Tumors were established by subcutaneously implanting 5×10^4 CT26 cells in suspension into the right flanks of mice. Tumor […] were calculated using the equation (l×w^2)/2, where l and w refer to the larger and smaller dimensions collected at each measurement. Treatments began at day 11 after cell implantation with tumor size around 40-100 mm^3. Mice (n=10/group) were treated with Compound A at 1 mg/kg, orally once a day for 21 days, or anti-mouse antibodies, rat-IgG2a and αPD-L1 (10F.9G2 clone) at 10 mg/kg, intraperitoneally (i.p.) twice weekly for three weeks. Tumors were monitored and each animal was euthanized when it's tumor reached the endpoint volume of 2000 mm^3, ulcerated, or on the final day (Day 21), whichever came first. Percent tumor growth inhibition (% TGI) was defined as the difference between the mean tumor volume (MTV) of the designated control group and the MTV of the drug-treated group, expressed as a percentage of the MTV of the designated control group: % TGI=[1−(MTVdrug-treated/MTVcontrol)]×100.
Log-transformed tumor volume was analyzed using ANOVA, fitting a term for treatment. Differences between fitted treatment means were then calculated with associated raw p-values. […]

pERK1/2 (T202/Y204) = assay: MAPK signaling inhibition in CT26 cells by western blot (pERK); type: cell-based, mouse; conditions: 24 hours
Description: MAPK signaling inhibition by Compound A from CT 26 cells were determined by western blot analysis. CT26 cells were treated with Compound A in culture medium containing 10% FBS for 24 hours. Proteins were extracted for immunoblotting with anti-ERK1/2 and pERK1/2 (T202/Y204) from Santa Cruz Biotechnology. The membranes were developed with Odyssey Infrared Imaging System (LI-COR Biosciences).

[1] = system: CT26 mouse colon carcinoma cells; assay: Cell growth inhibition of CT26 cells, CellTiter-Glo (CTG) assay; type: cell-based; conditions: 72 h, CT26 cells (KRAS G12D, MAPK1 and MET amplifications), 3 days, 10% FBS, read-out: IC50 value in cell proliferation inhibition
Description: CT26 mouse colon carcinoma cells from American Type Culture Collection (ATCC, cat#CRL-2638, lot#59227052) were cultured in RPMI with 10% fetal bovine serum (FBS) media. Cell growth inhibition was determined via CellTiter-Glo® (CTG) assay (Promega) according to the manufacturer's protocol. Approximately 24 hours after plating, cells were exposed to Compound A with three-fold serial dilutions. Cells were incubated with the compound in culture medium containing 10% FBS for 3 days. IC50 values were interpolated using the method of Levenberg & Marquardt and the equation: y=Vmax−{1−[xn/(Kn+xn)]}, where ‘K’ is equal to IC50 (Mager M E, Data Analysis in Biochemistry and Biophysics. New York: Academic Press. 1972).

- IC50 [1]: 20 nM
Compound: CC(=O)Nc1cccc(-n2c(=O)n(C3CC3)c(=O)c3c(Nc4ccc(I)cc4F)n(C)c(=O)c(C)c32)c1 [Compound A, N-{3-[3-cyclopropyl-5-(2-fluoro-4-iodo-phenylamino)6,8-dimethyl-2,4,7-trioxo-3,4,6,7-tetrahydro-2H-pyrido[4,3-d]pyrimidin-1-yl]phenyl}acetamide]
- TGI (tumor growth inhibition) (CT26 tumors): 61%
- MAPK signaling inhibition measured by pERK (pERK1/2 (T202/Y204)): dose dependent MAPK signaling inhibition

Source: patent publication US20160089434A1, “COMBINATIONS OF AN ANTI-PD-L1 ANTIBODY AND A MEK INHIBITOR AND/OR A BRAF INHIBITOR” (NOVARTIS AG, priority 2013, published 2016)
